In patent US20150141336A1, “Pancreatic Peptide Compounds and Use” (Novo Nordisk A/S, priority 2012, published 2015):
Numbered stars: 1 amine (or outer) side, 2 acyl side, 3 side chain; on linkers, the order of the positions; unused ones are H or OH. Side chains are listed from the residue outwards. Peptide text beside a SMILES is read from it. * marks the point of attachment. C18 diacid = O=C(O)CCCCCCCCCCCCCCCCC(=O)*; γGlu = O=C(O)[C@H](CCC(=O)[*:2])N[*:1]; AEEA = NCCOCCOCC(=O)O

Experiment: Assay (II) PK i.v. minipig, in vivo half-life
Parameters: species or system Göttingen mini-pigs
Settings: male, Göttingen, minipig, iv
Outline: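 Plasma levels after a single 6 nmol/kg intravenous dose in five male Göttingen mini-pigs were measured by TFC/LC/MS/MS against spiked-plasma calibration, sampling to 240 h. Vehicle: 50 mM K2HPO4, 0.05% tween 80, pH 8.0. Individual profiles analysed non-compartmentally for half-life.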

| Half-life minipig, Assay (II) [h] | SMILES |
| --- | --- |
| 40 | CC[C@H](C)[C@H](NC(=O)[C@H](Cc1ccc(O)cc1)NC(=O)[C@H](CCCNC(=N)N)NC(=O)[C@H](CCCNC(=N)N)NC(=O)[C@H](CC(C)C)NC(=O)[C@H](CC(=O)O)NC(=O)[C@H](C)NC(=O)[C@H](C)NC(=O)[C@H](Cc1ccc(O)cc1)NC(=O)[C@H](CCC(N)=O)NC(=O)[C@H](C)NC(=O)[C@H](CCSC)NC(=O)[C@H](CCCCNC(=O)COCCOCCNC(=O)COCCOCCNC(=O)CC[C@H](NC(=O)CCCCCCCCCCCCCCCCC(=O)O)C(=O)O)NC(=O)[C@H](CCC(=O)O)NC(=O)[C@@H]1CCCN1C(=O)[C@@H](NC(=O)[C@H](C)NC(=O)[C@H](CC(N)=O)NC(=O)[C@H](CC(=O)O)NC(=O)CNC(=O)[C@@H]1CCCN1C(=O)[C@H](Cc1ccc(O)cc1)NC(=O)[C@@H](NC(=O)[C@@H]1CCCN1C(=O)[C@H](CCC(=O)O)NC(=O)[C@H](CC(C)C)NC(=O)[C@@H]1CCCN1)C(C)C)[C@@H](C)O)C(=O)N[C@@H](CC(N)=O)C(=O)N[C@@H](CCSC)C(=O)N[C@@H](CC(C)C)C(=O)N[C@H](C(=O)N[C@@H](CCCNC(=N)N)C(=O)N1CCC[C@H]1C(=O)N[C@@H](CCCNC(=N)N)C(=O)N[C@@H](Cc1ccc(O)cc1)C(N)=O)[C@@H](C)O [Compound R] (H-PLEPVYPGDNATPEK([AEEA-AEEA-γGlu-C18 diacid])MAQYAADLRRYINMLTRPRY-NH2; N-terminus and C-terminus assumed) |

Same assay, conditions: male, Göttingen, minipig, iv, Half-life minipig, Assay (II)

| half-life [h] | SMILES |
| --- | --- |
| 77 | CC[C@H](C)[C@H](NC(=O)[C@H](Cc1ccc(O)cc1)NC(=O)[C@H](CCCNC(=N)N)NC(=O)[C@H](CCCNC(=N)N)NC(=O)[C@H](CC(C)C)NC(=O)[C@H](CC(=O)O)NC(=O)[C@H](C)NC(=O)[C@H](CCCCNC(=O)COCCOCCNC(=O)COCCOCCNC(=O)CC[C@H](NC(=O)CCCCCCCCCCCCCCCCC(=O)O)C(=O)O)NC(=O)[C@H](Cc1ccc(O)cc1)NC(=O)[C@H](CCC(N)=O)NC(=O)[C@H](C)NC(=O)[C@H](CCSC)NC(=O)[C@H](CCC(N)=O)NC(=O)[C@H](CCC(=O)O)NC(=O)[C@@H]1CCCN1C(=O)[C@@H](NC(=O)[C@H](C)NC(=O)[C@H](CC(N)=O)NC(=O)[C@H](CC(=O)O)NC(=O)CNC(=O)[C@@H]1CCCN1C(=O)[C@H](Cc1ccc(O)cc1)NC(=O)[C@@H](NC(=O)[C@@H]1CCCN1C(=O)[C@H](CCC(=O)O)NC(=O)[C@H](CC(C)C)NC(=O)[C@@H]1CCCN1)C(C)C)[C@@H](C)O)C(=O)N[C@@H](CC(N)=O)C(=O)N[C@@H](CCSC)C(=O)N[C@@H](CC(C)C)C(=O)N[C@H](C(=O)N[C@@H](CCCNC(=N)N)C(=O)N1CCC[C@H]1C(=O)N[C@@H](CCCNC(=N)N)C(=O)N[C@@H](Cc1ccc(O)cc1)C(N)=O)[C@@H](C)O [Compound M] (H-PLEPVYPGDNATPEQMAQYK([AEEA-AEEA-γGlu-C18 diacid])ADLRRYINMLTRPRY-NH2; N-terminus and C-terminus assumed) |
| 44 | CC[C@H](C)[C@H](NC(=O)[C@H](Cc1ccc(O)cc1)NC(=O)[C@H](CCCNC(=N)N)NC(=O)[C@H](CCCNC(=N)N)NC(=O)[C@H](CC(C)C)NC(=O)[C@H](CC(=O)O)NC(=O)[C@H](C)NC(=O)[C@H](C)NC(=O)[C@H](CCCCNC(=O)COCCOCCNC(=O)COCCOCCNC(=O)CC[C@H](NC(=O)CCCCCCCCCCCCCCCCC(=O)O)C(=O)O)NC(=O)[C@H](CCC(N)=O)NC(=O)[C@H](C)NC(=O)[C@H](CCSC)NC(=O)[C@H](CCC(N)=O)NC(=O)[C@H](CCC(=O)O)NC(=O)[C@@H]1CCCN1C(=O)[C@@H](NC(=O)[C@H](C)NC(=O)[C@H](CC(N)=O)NC(=O)[C@H](CC(=O)O)NC(=O)CNC(=O)[C@@H]1CCCN1C(=O)[C@H](Cc1ccc(O)cc1)NC(=O)[C@@H](NC(=O)[C@@H]1CCCN1C(=O)[C@H](CCC(=O)O)NC(=O)[C@H](CC(C)C)NC(=O)[C@@H]1CCCN1)C(C)C)[C@@H](C)O)C(=O)N[C@@H](CC(N)=O)C(=O)N[C@@H](CCSC)C(=O)N[C@@H](CC(C)C)C(=O)N[C@H](C(=O)N[C@@H](CCCNC(=N)N)C(=O)N1CCC[C@H]1C(=O)N[C@@H](CCCNC(=N)N)C(=O)N[C@@H](Cc1ccc(O)cc1)C(N)=O)[C@@H](C)O [Compound N] (H-PLEPVYPGDNATPEQMAQK([AEEA-AEEA-γGlu-C18 diacid])AADLRRYINMLTRPRY-NH2; N-terminus and C-terminus assumed) |
| 60 | CC[C@H](C)[C@H](NC(=O)[C@H](Cc1ccc(O)cc1)NC(=O)[C@H](CCCNC(=N)N)NC(=O)[C@H](CCCNC(=N)N)NC(=O)[C@H](CC(C)C)NC(=O)[C@H](CC(=O)O)NC(=O)[C@H](C)NC(=O)[C@H](C)NC(=O)[C@H](Cc1ccc(O)cc1)NC(=O)[C@H](CCCCNC(=O)COCCOCCNC(=O)COCCOCCNC(=O)CC[C@H](NC(=O)CCCCCCCCCCCCCCCCC(=O)O)C(=O)O)NC(=O)[C@H](C)NC(=O)[C@H](CCSC)NC(=O)[C@H](CCC(N)=O)NC(=O)[C@H](CCC(=O)O)NC(=O)[C@@H]1CCCN1C(=O)[C@@H](NC(=O)[C@H](C)NC(=O)[C@H](CC(N)=O)NC(=O)[C@H](CC(=O)O)NC(=O)CNC(=O)[C@@H]1CCCN1C(=O)[C@H](Cc1ccc(O)cc1)NC(=O)[C@@H](NC(=O)[C@@H]1CCCN1C(=O)[C@H](CCC(=O)O)NC(=O)[C@H](CC(C)C)NC(=O)[C@@H]1CCCN1)C(C)C)[C@@H](C)O)C(=O)N[C@@H](CC(N)=O)C(=O)N[C@@H](CCSC)C(=O)N[C@@H](CC(C)C)C(=O)N[C@H](C(=O)N[C@@H](CCCNC(=N)N)C(=O)N1CCC[C@H]1C(=O)N[C@@H](CCCNC(=N)N)C(=O)N[C@@H](Cc1ccc(O)cc1)C(N)=O)[C@@H](C)O [Compound O] (H-PLEPVYPGDNATPEQMAK([AEEA-AEEA-γGlu-C18 diacid])YAADLRRYINMLTRPRY-NH2; N-terminus and C-terminus assumed) |
| 71 | CC[C@H](C)[C@H](NC(=O)[C@H](Cc1ccc(O)cc1)NC(=O)[C@H](CCCNC(=N)N)NC(=O)[C@H](CCCNC(=N)N)NC(=O)[C@H](CC(C)C)NC(=O)[C@H](CC(=O)O)NC(=O)[C@H](C)NC(=O)[C@H](C)NC(=O)[C@H](Cc1ccc(O)cc1)NC(=O)[C@H](CCC(N)=O)NC(=O)[C@H](CCCCNC(=O)COCCOCCNC(=O)COCCOCCNC(=O)CC[C@H](NC(=O)CCCCCCCCCCCCCCCCC(=O)O)C(=O)O)NC(=O)[C@H](CCSC)NC(=O)[C@H](CCC(N)=O)NC(=O)[C@H](CCC(=O)O)NC(=O)[C@@H]1CCCN1C(=O)[C@@H](NC(=O)[C@H](C)NC(=O)[C@H](CC(N)=O)NC(=O)[C@H](CC(=O)O)NC(=O)CNC(=O)[C@@H]1CCCN1C(=O)[C@H](Cc1ccc(O)cc1)NC(=O)[C@@H](NC(=O)[C@@H]1CCCN1C(=O)[C@H](CCC(=O)O)NC(=O)[C@H](CC(C)C)NC(=O)[C@@H]1CCCN1)C(C)C)[C@@H](C)O)C(=O)N[C@@H](CC(N)=O)C(=O)N[C@@H](CCSC)C(=O)N[C@@H](CC(C)C)C(=O)N[C@H](C(=O)N[C@@H](CCCNC(=N)N)C(=O)N1CCC[C@H]1C(=O)N[C@@H](CCCNC(=N)N)C(=O)N[C@@H](Cc1ccc(O)cc1)C(N)=O)[C@@H](C)O [Compound P] (H-PLEPVYPGDNATPEQMK([AEEA-AEEA-γGlu-C18 diacid])QYAADLRRYINMLTRPRY-NH2; N-terminus and C-terminus assumed) |
| 56 | CC[C@H](C)[C@H](NC(=O)[C@H](Cc1ccc(O)cc1)NC(=O)[C@H](CCCNC(=N)N)NC(=O)[C@H](CCCNC(=N)N)NC(=O)[C@H](CC(C)C)NC(=O)[C@H](CC(=O)O)NC(=O)[C@H](C)NC(=O)[C@H](C)NC(=O)[C@H](Cc1ccc(O)cc1)NC(=O)[C@H](CCC(N)=O)NC(=O)[C@H](C)NC(=O)[C@H](CCCCNC(=O)COCCOCCNC(=O)COCCOCCNC(=O)CC[C@H](NC(=O)CCCCCCCCCCCCCCCCC(=O)O)C(=O)O)NC(=O)[C@H](CCC(N)=O)NC(=O)[C@H](CCC(=O)O)NC(=O)[C@@H]1CCCN1C(=O)[C@@H](NC(=O)[C@H](C)NC(=O)[C@H](CC(N)=O)NC(=O)[C@H](CC(=O)O)NC(=O)CNC(=O)[C@@H]1CCCN1C(=O)[C@H](Cc1ccc(O)cc1)NC(=O)[C@@H](NC(=O)[C@@H]1CCCN1C(=O)[C@H](CCC(=O)O)NC(=O)[C@H](CC(C)C)NC(=O)[C@@H]1CCCN1)C(C)C)[C@@H](C)O)C(=O)N[C@@H](CC(N)=O)C(=O)N[C@@H](CCSC)C(=O)N[C@@H](CC(C)C)C(=O)N[C@H](C(=O)N[C@@H](CCCNC(=N)N)C(=O)N1CCC[C@H]1C(=O)N[C@@H](CCCNC(=N)N)C(=O)N[C@@H](Cc1ccc(O)cc1)C(N)=O)[C@@H](C)O [Compound Q] (H-PLEPVYPGDNATPEQK([AEEA-AEEA-γGlu-C18 diacid])AQYAADLRRYINMLTRPRY-NH2; N-terminus and C-terminus assumed) |
| 44 | CC[C@H](C)[C@H](NC(=O)[C@H](Cc1ccc(O)cc1)NC(=O)[C@H](CCCNC(=N)N)NC(=O)[C@H](CCCNC(=N)N)NC(=O)[C@H](CC(C)C)NC(=O)[C@H](CC(=O)O)NC(=O)[C@H](C)NC(=O)[C@H](C)NC(=O)[C@H](Cc1ccc(O)cc1)NC(=O)[C@H](CCC(N)=O)NC(=O)[C@H](C)NC(=O)[C@H](CCSC)NC(=O)[C@H](CCCCNC(=O)COCCOCCNC(=O)COCCOCCNC(=O)CC[C@H](NC(=O)CCCCCCCCCCCCCCCCC(=O)O)C(=O)O)NC(=O)[C@H](CCC(=O)O)NC(=O)[C@@H]1CCCN1C(=O)[C@@H](NC(=O)[C@H](C)NC(=O)[C@H](CC(N)=O)NC(=O)[C@H](CC(=O)O)NC(=O)CNC(=O)[C@@H]1CCCN1C(=O)[C@H](Cc1ccc(O)cc1)NC(=O)[C@@H](NC(=O)[C@@H]1CCCN1C(=O)[C@H](CCC(=O)O)NC(=O)[C@H](CC(C)C)NC(=O)[C@@H]1CCCN1)C(C)C)[C@@H](C)O)C(=O)N[C@@H](CC(N)=O)C(=O)N[C@@H](CCSC)C(=O)N[C@@H](CC(C)C)C(=O)N[C@H](C(=O)N[C@@H](CCCNC(=N)N)C(=O)N1CCC[C@H]1C(=O)N[C@@H](CCCNC(=N)N)C(=O)N[C@@H](Cc1ccc(O)cc1)C(N)=O)[C@@H](C)O [Compound R] (H-PLEPVYPGDNATPEK([AEEA-AEEA-γGlu-C18 diacid])MAQYAADLRRYINMLTRPRY-NH2; N-terminus and C-terminus assumed) |
| 35 | CC[C@H](C)[C@H](NC(=O)[C@H](Cc1ccc(O)cc1)NC(=O)[C@H](CCCNC(=N)N)NC(=O)[C@H](CCCNC(=N)N)NC(=O)[C@H](CC(C)C)NC(=O)[C@H](CC(=O)O)NC(=O)[C@H](C)NC(=O)[C@H](C)NC(=O)[C@H](Cc1ccc(O)cc1)NC(=O)[C@H](CCC(N)=O)NC(=O)[C@H](C)NC(=O)[C@H](CCSC)NC(=O)[C@H](CCC(N)=O)NC(=O)[C@H](CCCCNC(=O)COCCOCCNC(=O)COCCOCCNC(=O)CC[C@H](NC(=O)CCCCCCCCCCCCCCCCC(=O)O)C(=O)O)NC(=O)[C@@H]1CCCN1C(=O)[C@@H](NC(=O)[C@H](C)NC(=O)[C@H](CC(N)=O)NC(=O)[C@H](CC(=O)O)NC(=O)CNC(=O)[C@@H]1CCCN1C(=O)[C@H](Cc1ccc(O)cc1)NC(=O)[C@@H](NC(=O)[C@@H]1CCCN1C(=O)[C@H](CCC(=O)O)NC(=O)[C@H](CC(C)C)NC(=O)[C@@H]1CCCN1)C(C)C)[C@@H](C)O)C(=O)N[C@@H](CC(N)=O)C(=O)N[C@@H](CCSC)C(=O)N[C@@H](CC(C)C)C(=O)N[C@H](C(=O)N[C@@H](CCCNC(=N)N)C(=O)N1CCC[C@H]1C(=O)N[C@@H](CCCNC(=N)N)C(=O)N[C@@H](Cc1ccc(O)cc1)C(N)=O)[C@@H](C)O [Compound S] (H-PLEPVYPGDNATPK([AEEA-AEEA-γGlu-C18 diacid])QMAQYAADLRRYINMLTRPRY-NH2; N-terminus and C-terminus assumed) |
